From article PMC8019873, “Histone Deacetylase Inhibitory and Cytotoxic Activities of the Constituents from the Roots of Sophora Pachycarpa” (Iranian Journal of Pharmaceutical Research : IJPR, 2020)

Key:
[1] = tested on: HeLa cells; assay: AlamarBlue cytotoxic assay, HeLa; assay type: cell-based; conditions: human cervical HeLa cells, 48 h, read-out: Cytotoxicity IC50 HeLa
Protocol: (§1) The cells were seeded in 96-well microplates (1 × 10^4 cells/100 µL in each well) and cultivated for 24 h before the addition of test compounds. Three wells for each concentration were seeded and triplicate plates were used. […] Then, the cells were incubated with the different concentrations of the test compounds, positive control and cell culture medium alone as a negative control for 48 h. After that, 10 μL of alamarBlue® reagent was added to the attached cells and incubated for another four hour. The absorbance was measured at 600 nm using an ELISA microplate reader (Epoch; Bio Tek, Winooski, VT, USA), and the percent viability of the cells was investigated relative to the negative control that was exposed to the culture medium without compounds of the plant. Then, IC50 values were calculated by nonlinear regression analysis using GraphPad Prism (Version 6.0) software.

[2] = tested on: HCT116 cells; assay: AlamarBlue cytotoxic assay, HCT116; assay type: cell-based; conditions: HCT-116, human colon cancer HCT116 cells, 48 h, read-out: Cytotoxicity IC50 HCT116
Protocol: as §1

[3] = tested on: A2780 cells; assay: AlamarBlue cytotoxic assay, A2780; assay type: cell-based; conditions: Homo sapiens, ovarian cancer A2780 cells, 48 h, read-out: Cytotoxicity IC50 A2780
Protocol: as §1

[4] = tested on: A549 cells; assay: AlamarBlue cytotoxic assay, A549; assay type: cell-based; conditions: Homo sapiens, lung A549 cells, 48 h, read-out: Cytotoxicity IC50 A549
Protocol: as §1

[5] = tested on: HDAC; assay: Whole-cell HDAC inhibition assay in HeLa cells; assay type: cell-based, human; conditions: 18 h, Boc-Lys(ε-Ac)-AMC substrate
Protocol: (§2) The cellular HDAC assay was based on an assay published by Marek et al. ([16]). HCT116 and HeLa human cancer cell lines were seeded in 96-well tissue culture microplates (1.5 × 10^4 cells/90 µL culture medium in each well). […] The test compounds were dissolved in dimethyl sulfoxide (the final amount of DMSO/well was maintained at 0.1% V/V) and their concentrations adjusted to 70, 40, 20, 5, 1 μM through dilution with the growth medium. The reaction was started by adding 10 µL of 3 mM Boc-Lys (ε-Ac)-AMC (Bachem, Switzerland) to each well at a final concentration of 0.3 mM. The cells were incubated with the Boc-Lys (ε-Ac)-AMC for 3 h under cell culture conditions. […] The final volume of the assay is 210 µL in all the wells. After that, the solution was transferred into a black 96-well microplate with flat clear bottom and fluorescence intensity was detected at an excitation of 360 nm and emission of 470 nm in a NOVO star microplate reader (BMGLabTech, Offenburg, Germany).

[6] = tested on: HDAC; assay: Whole-cell HDAC inhibition assay in HCT116 cells; assay type: cell-based, human; conditions: HCT116, 18 h, Boc-Lys(ε-Ac)-AMC substrate
Protocol: as §2

[7] = tested on: A2780, A549, HeLa, and HCT116 human cancer cell lines; assay: AlamarBlue cytotoxic assay, range over four cancer cell lines; assay type: cell-based; conditions: read-out: Cytotoxicity IC50 range against four cancer cell lines
Protocol: Compounds 1-5 were tested against HeLa, HCT116, A2780and A549 human cancer cell lines using a nonfluorescent substrate, AlamarBlue® (BioSource Invitrogen, Paisely, UK) and subjected to cell viability assay as described with some modification ([15]). The cell lines were cultured in RPMI-1640 medium (Cambrex Bioscience) supplemented with 10% fetal bovine serum (FBS), and 1% penicillin/streptomycin at 37 °C in an atmosphere of 95% […] and 5% CO2. The cells were seeded in 96-well microplates (1 × 10^4 cells/100 µL in each well) and cultivated for 24 h before the addition of test compounds. Three wells for each concentration were seeded and triplicate plates were used. The test compounds were dissolved in dimethyl sulfoxide (the final amount of DMSO per well was maintained at 0.1%V/V) and their concentrations adjusted to 100, 50, 25, 12.5, 6.25 μM through dilution with the growth medium. […] The absorbance was measured at 600 nm using an ELISA microplate reader (Epoch; Bio Tek, Winooski, VT, USA), and the percent viability of the cells was investigated relative to the negative control that was exposed to the culture medium without compounds of the plant. Then, IC50 values were calculated by nonlinear regression analysis using GraphPad Prism (Version 6.0) software.

[8] = tested on: pan-HDAC; assay: Whole-cell pan-HDAC inhibition, range over HCT116 and HeLa cells; assay type: cell-based, human; conditions: read-out: pan-HDAC inhibitory activity IC50 range
Protocol: as §2

C=C(C)C(CC=C(C)C)Cc1c2c(c(O)c3c1OC(c1ccc(O)cc1)C3c1cc(O)cc(O)c1)C(=O)CC(c1ccc(O)cc1O)O2 (centres unmarked) [Compound 4, alopecurone J]
IC50 [1]: 9.97 µM
IC50 [2]: 18 µM
IC50 [3]: 21.9 µM
IC50 [4]: 30.9 µM
IC50 [5]: 3.85 µM
IC50 [6]: 0.08 µM
IC50 [7]: 9.97 to 30.9 µM
IC50 [8]: 0.08 to 3.85 µM

Oc1ccc(C2Oc3cc(O)cc(O)c3C2O)cc1 (centres unmarked) [Compound 3, 2-(4-hydroxyphenyl)-2,3-dihydrobenzo[b]furan-3,4,6-triol]
IC50 [1]: 69.4 µM
IC50 [2]: 54 µM
IC50 [3]: > 100 µM
IC50 [4]: 76.5 µM
IC50 [5]: > 70 µM
IC50 [6]: > 70 µM

COc1c(C2COc3cc(O)c(CC=C(C)C)c(O)c3C2=O)ccc(O)c1CC=C(C)C (centres unmarked) [Compound 1, isosophoranone]
IC50 [1]: 43.2 µM
IC50 [2]: 39.3 µM
IC50 [3]: 49.3 µM
IC50 [4]: 53.5 µM
IC50 [5]: 34.7 µM
IC50 [6]: 26.5 µM

C=C(C)[C@H](CC=C(C)C)Cc1c(O)cc(O)c2c1O[C@H](c1ccc(O)cc1O)CC2=O [Compound 2, sophoraflavanone G]
IC50 [1]: 44.2 µM
IC50 [2]: 54.4 µM
IC50 [3]: 65.5 µM
IC50 [4]: 72.5 µM
IC50 [5]: > 70 µM
IC50 [6]: > 70 µM

CC(C)=CCc1c2c(c(O)c3c1O[C@@H](c1ccc(O)cc1)[C@@H]3c1cc(O)cc(O)c1)C(=O)C[C@@H](c1ccc(O)cc1O)O2 [Compound 5, alopecurone P]
IC50 [1]: 52.6 µM
IC50 [2]: 48.4 µM
IC50 [3]: 69 µM
IC50 [4]: 54.9 µM
IC50 [5]: 24.9 µM
IC50 [6]: 22.2 µM
